Source: patent US20240343747A1, “Heteroaryl compounds as inhibitors of TYK2, composition and application thereof” (Accro Bioscience (HK) Limited, priority 2021, published 2024)

Assays:
hERG channel = hERG channel (Homo sapiens (Human), UniProt Q12809); assay: in vitro; settings: human
Experimental: Chinese hamster ovary (CHO) cell line, CHO-hERG cells were used in this study. CHO-hERG cells were derived from Sophion Biosciences Inc. (Ballerup, Denmark) in Suzhou, China. The cell reserve fluid is frozen in liquid nitrogen tanks. Each batch of stored cell fluid is tested for mycoplasma contamination. The cells were no longer used after 30 generations.
The whole cell patch clamp technique was used to record hERG current at room temperature. The patch-clamp amplifier outputs signals through […] conversion and 2.9 KHz low-pass filtering. Data records were collected by Patchmaster Pro software.
Cells were planted in a cell recording tank and placed on an inverted microscope platform. One cell in the recording tank was randomly selected for experiment. The perfusion system was fixed on an inverted microscope platform and cells were continuously irrigated with ECS.
Manual patch clamp recording microelectrode was prepared with capillary glass tube, which was filled with intracellular fluid. On the day of the patch clamp test, the electrodes were prepared using a borosilicate glass tube (GC150TF-10, Harvard Apparatus Co. UK). The resistance is between 2-5 MΩ after the electrode is filled with ICS.
The clamping voltage was −80 mV, and the first step was depolarized to +60 mV for 850 ms to open the hERG channel. The voltage is then set to −50 mV and maintained for 1275 ms, resulting in a rebound current or tail current, the peak of which is measured and used for analysis. Finally, the voltage is restored to the clamping voltage (−80 mV). During the test, the command voltage program was repeated every 15 s.
At the beginning of recording the perfusion of the solvent control working solution, the test substance/positive control working solution to be tested can be poured after monitoring the tail current peak until more than 3 scanning curves are stable, until the inhibition of the test substance/positive control working solution to the hERG current peak reaches a stable state. Generally, the most recent three consecutive peak values of the current curve basically coincide as a criterion to judge whether the state is stable. After reaching a stable state, continue to pour one concentration of the test sample. One or more test subjects/positive controls, or multiple concentrations of the same drug, can be tested on a cell, and the different test subjects/positive controls need to be rinsed with a solvent control working fluid until the hERG current returns to more than 80% of its pre-drug level.
The concentration of positive control cisapride was 0.1 μM, and two cells were repeated.

TYK2 = TYK2 (Mus musculus (Mouse), UniProt Q9R117); assay: Luciferase assay in L929 ISRE cells stimulated with IFN-α; format: cell-based; settings: IFN-α 100 ng/mL; for inhibition at 1 µM: 1000 nM, read-out: Inhibitory activity % (1000 nM)
TYK2, sequence (Q9R117 whole entry): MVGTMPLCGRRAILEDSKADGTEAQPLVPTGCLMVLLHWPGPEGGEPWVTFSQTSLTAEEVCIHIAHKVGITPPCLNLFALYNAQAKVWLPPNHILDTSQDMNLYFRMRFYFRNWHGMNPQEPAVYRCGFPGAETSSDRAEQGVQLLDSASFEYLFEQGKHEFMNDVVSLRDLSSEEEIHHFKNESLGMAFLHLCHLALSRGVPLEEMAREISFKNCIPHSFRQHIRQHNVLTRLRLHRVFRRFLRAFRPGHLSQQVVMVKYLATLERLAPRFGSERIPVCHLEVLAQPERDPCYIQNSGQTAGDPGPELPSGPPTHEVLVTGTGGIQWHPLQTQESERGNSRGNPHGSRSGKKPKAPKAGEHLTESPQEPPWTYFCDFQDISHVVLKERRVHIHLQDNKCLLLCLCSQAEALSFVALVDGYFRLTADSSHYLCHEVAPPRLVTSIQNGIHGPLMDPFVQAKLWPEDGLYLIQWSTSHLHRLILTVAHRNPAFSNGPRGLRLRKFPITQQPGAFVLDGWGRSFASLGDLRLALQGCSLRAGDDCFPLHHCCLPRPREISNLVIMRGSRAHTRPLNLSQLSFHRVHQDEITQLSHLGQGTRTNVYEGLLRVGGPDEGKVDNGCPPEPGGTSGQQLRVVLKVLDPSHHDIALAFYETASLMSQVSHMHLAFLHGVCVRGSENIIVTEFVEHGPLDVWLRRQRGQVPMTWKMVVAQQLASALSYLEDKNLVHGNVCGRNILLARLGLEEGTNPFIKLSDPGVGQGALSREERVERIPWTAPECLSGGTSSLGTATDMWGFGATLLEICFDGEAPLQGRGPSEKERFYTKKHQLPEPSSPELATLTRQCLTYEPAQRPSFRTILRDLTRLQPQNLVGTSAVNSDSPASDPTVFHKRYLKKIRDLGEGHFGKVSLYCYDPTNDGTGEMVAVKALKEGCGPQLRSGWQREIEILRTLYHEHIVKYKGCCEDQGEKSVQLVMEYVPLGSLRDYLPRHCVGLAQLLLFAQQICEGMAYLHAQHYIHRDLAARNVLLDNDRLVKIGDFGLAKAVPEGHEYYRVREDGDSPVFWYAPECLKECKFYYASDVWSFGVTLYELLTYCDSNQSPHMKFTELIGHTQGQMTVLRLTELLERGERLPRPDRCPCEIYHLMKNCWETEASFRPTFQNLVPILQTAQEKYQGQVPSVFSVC
Experimental: • 1. L929 ISRE cells (5000 cells/well) were seeded on 96-well plates and incubated overnight at room temperature; • 2. The cells were pretreated by adding different concentrations (10 nM, 50 nM, 100 nM, 200 nM or 1000 nM) of the test compounds for 2 hours; • 3. Added IFN-α (100 ng/mL) to stimulate cells for 6 hours; • 4. Removed the upper medium, add PBS (100 μL) and washed, then removed PBS; • 5. Added PLB lysis solution (50 μL) to each well, shook the well for 15 minutes; • 6. Transferred PLB lysis solution (30 μL) to a new 96-well whiteboard, added LAR II reagent (LAR II), then quickly read the […]; • 7. Added Stop & Glo reagent (30 μL), then read the 450 nm OD value using the plate washer. • 8. The final results in Table 3 were the OD value in step 6/OD value in step 7.

TYK2 JH2 = TYK2 JH2 (Homo sapiens (Human), UniProt P29597); assay: Competitive binding assay (kinase-tagged phage, qPCR), TYK2 JH2
TYK2 JH2, sequence (P29597 589-875): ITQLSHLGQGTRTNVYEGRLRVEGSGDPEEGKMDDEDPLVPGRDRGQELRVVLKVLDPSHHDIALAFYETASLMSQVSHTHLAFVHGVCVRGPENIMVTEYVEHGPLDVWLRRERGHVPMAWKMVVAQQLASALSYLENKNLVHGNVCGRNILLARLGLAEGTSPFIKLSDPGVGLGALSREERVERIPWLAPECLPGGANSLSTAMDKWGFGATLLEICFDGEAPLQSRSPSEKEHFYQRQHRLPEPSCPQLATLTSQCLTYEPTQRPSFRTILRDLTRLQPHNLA
Experimental: (§1) For most assays, kinase-tagged T7 phage strains were prepared in an E. coli host derived from the BL21 strain. E. coli were grown to log-phase and infected with T7 phage and incubated with shaking at 32° C. until lysis. The lysates were centrifuged and filtered to remove cell debris. The remaining kinases were produced in HEK-293 cells and subsequently tagged with DNA for qPCR detection. Streptavidin coated magnetic beads were treated with biotinylated small molecule ligands for 30 minutes at room temperature to generate affinity resins for kinase assays. The liganded beads were blocked with excess biotin and washed with blocking buffer (SeaBlock (Pierce), 1% BSA, 0.05% Tween 20, 1 mM DTT) to remove unbound ligand and to reduce non-specific binding. […] Test compounds were prepared as 111X stocks in 100% DMSO. Dissociation constants (Kds) were determined using an 11-point 3-fold compound dilution series with three DMSO control points. All compounds for Kd measurements are distributed by acoustic transfer (non-contact dispensing) in 100% DMSO. The compounds were then diluted directly into the assays such that the final concentration of DMSO was 0.9%. All reactions performed in polypropylene 384-well plate. Each was a final volume of 0.02 ml. The assay plates were incubated at room temperature with shaking for 1 hour and the affinity beads were washed with wash buffer (1×PBS, 0.05% Tween 20). The beads were then re-suspended in elution buffer (1×PBS, 0.05% Tween 20, 0.5 μM nonbiotinylated affinity ligand) and incubated at room temperature with shaking for 30 minutes. The kinase concentration in the eluates was measured by qPCR.
(§2) An 11-point 3-fold serial dilution of each test compound was prepared in 100% DMSO at 100× final test concentration and subsequently diluted to 1× in the assay (final DMSO concentration=1%). Most Kds were determined using a compound top concentration=30,000 nM. If the initial Kd determined was <0.5 nM (the lowest concentration tested), the measurement was repeated with a serial dilution starting at a lower top concentration.
(§3) Binding constants (Kds) were calculated with a standard dose-response curve using the Hill equation: […]
(§4) The Hill Slope was set to −1.
(§5) Curves were fitted using a non-linear least square fit with the Levenberg-Marquardt algorithm.

JAK1 JH1 = JAK1 JH1 (Homo sapiens (Human), UniProt P23458); assay: Competitive binding assay (kinase-tagged phage, qPCR), JAK1 JH1
JAK1 JH1, sequence (P23458 875-1153): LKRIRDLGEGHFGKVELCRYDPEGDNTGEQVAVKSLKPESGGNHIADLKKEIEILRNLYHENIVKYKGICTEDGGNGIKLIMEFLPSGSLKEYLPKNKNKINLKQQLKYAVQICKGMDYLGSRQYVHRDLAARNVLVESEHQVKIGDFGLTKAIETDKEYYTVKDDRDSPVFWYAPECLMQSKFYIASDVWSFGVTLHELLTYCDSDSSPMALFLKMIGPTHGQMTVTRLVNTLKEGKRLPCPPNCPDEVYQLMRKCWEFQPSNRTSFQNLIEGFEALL
Experimental: as §1, §2, §3, §4, §5

hERG channel, sequence (Q12809 whole entry): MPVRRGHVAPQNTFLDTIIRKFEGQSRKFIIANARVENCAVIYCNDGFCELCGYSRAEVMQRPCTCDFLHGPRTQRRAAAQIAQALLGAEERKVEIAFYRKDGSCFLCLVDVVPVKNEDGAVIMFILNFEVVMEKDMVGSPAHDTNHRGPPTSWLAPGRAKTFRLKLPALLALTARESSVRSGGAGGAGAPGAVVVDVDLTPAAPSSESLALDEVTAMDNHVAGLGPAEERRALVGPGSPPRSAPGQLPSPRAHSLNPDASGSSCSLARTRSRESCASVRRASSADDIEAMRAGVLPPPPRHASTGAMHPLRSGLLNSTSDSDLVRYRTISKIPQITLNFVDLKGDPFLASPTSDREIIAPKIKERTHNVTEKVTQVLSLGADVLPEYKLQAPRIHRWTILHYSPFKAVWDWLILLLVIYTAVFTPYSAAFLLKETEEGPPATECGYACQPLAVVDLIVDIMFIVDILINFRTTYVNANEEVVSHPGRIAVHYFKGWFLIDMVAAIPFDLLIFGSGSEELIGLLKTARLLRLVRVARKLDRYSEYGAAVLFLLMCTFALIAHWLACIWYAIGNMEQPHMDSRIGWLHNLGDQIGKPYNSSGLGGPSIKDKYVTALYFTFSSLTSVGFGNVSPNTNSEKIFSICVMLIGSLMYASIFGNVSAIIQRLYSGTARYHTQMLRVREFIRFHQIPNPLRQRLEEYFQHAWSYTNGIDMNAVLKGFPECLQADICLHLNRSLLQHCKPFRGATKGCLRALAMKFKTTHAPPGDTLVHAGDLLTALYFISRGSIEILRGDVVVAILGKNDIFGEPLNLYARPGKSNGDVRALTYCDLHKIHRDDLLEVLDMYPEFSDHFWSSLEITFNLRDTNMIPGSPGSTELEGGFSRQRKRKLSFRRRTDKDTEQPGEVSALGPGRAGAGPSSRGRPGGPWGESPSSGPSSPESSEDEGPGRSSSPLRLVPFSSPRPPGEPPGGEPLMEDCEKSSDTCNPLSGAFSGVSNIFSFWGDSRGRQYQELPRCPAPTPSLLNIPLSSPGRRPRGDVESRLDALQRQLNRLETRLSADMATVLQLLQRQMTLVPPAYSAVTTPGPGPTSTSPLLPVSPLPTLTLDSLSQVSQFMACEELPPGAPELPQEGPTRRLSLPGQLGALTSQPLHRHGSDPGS

Row | inhibition at 0.01 µM (TYK2; 10 nM, read-out: Inhibitory activity % (10 nM)) [%] | inhibition at 0.1 µM (TYK2; 100 nM, read-out: Inhibitory activity % (100 nM)) [%] | inhibition at 1 µM (TYK2) [%] | Kd (TYK2 JH2) [nM] | Kd (JAK1 JH1) [nM] | Structure (SMILES) | inhibition at 0.1 µM (hERG channel) [%]
1 |  |  |  |  |  | COc1cc(N)c(Cl)cc1C(=O)NC1CCN(CCCOc2ccc(F)cc2)CC1OC (stereo not drawn) [Cisapride, reference compound] | > 50
2 | 21 | 46 | 88 | 0.4 | > 30000 | CCC(=O)c1cnc(NC(=O)C2CC2)cc1Nc1cccc(-c2ccc(P(C)(C)=O)cc2)c1OC [Compound B3] | 
3 |  |  | 58 | 0.032 | > 30000 | CCC(=O)c1cnc(NC(=O)C2CC2)cc1Nc1cccc(-c2ccc(P(C)(C)=O)cn2)c1OC [Compound B4] | 
4 |  |  | 80 | 0.095 | > 30000 | CCC(=O)c1cnc(NC(=O)C2CC2)cc1Nc1cccc(-c2cnc(P(C)(C)=O)cn2)c1OC [Compound B5] | 
